The results in this text go back to patent US8709451B2, “Stable nanoemulsions for ultrasound-mediated drug delivery and imaging” (University of Utah Research Foundation, priority 2010, dated 2014).

Molecules are shown by their SMILES.

Experiment [1] relates to A2780 ovarian cancer cells. The experiment can be described thus: Confocal imaging of DOX uptake by substrate-attached cells without ultrasound. The format is cell-based. Particulars: no ultrasound, 20 μg/mL DOX. On the procedure:
A2780 cells were grown on cover glass in an 8 well cover glass chamber (LabTek chambered cover glass, NUNC, Rochester, N.Y.), and incubated with either, DOX dissolved in PBS, DOX-loaded 1.4% PEG-PCL micelle solution, or DOX-loaded 1% PFCE or PFP emulsions. Hoechst 33258 (Sigma Aldrich, St Louis, Mo.) stain was used to identify the nuclei of the A2780 cancer cells. Confocal fluorescent images of the cells were obtained using inverted confocal microscope (Olympus IX81, Olympus America Inc., Center Valley, Pa.); and the images were processed using ImageJ software. Emission filters of 570 nm for DOX and 480 nm for Hoechst were selected for imaging. In some experiments, DAPI was added to stain the cells before incubation with DOX and ultrasound exposure as discussed below.
A2780 drug sensitive cells, grown on chambered cover slip were incubated with different DOX formulations and confocal fluorescent images were obtained (FIGS. 14 and 15). Different image slices of the cell layer attached to the cover slip were recorded at an incremental step of 0.5 μm depth from the bottom to top of the cell layer (z-direction). The images recorded were stacked in z-direction and processed using ImageJ. The brightness and contrast ratios of magnified insets of the images were modified to reveal the intracellular distribution of fluorescence. […]
DOX fluorescence inside the cells was characterized by the R/G ratio where R is the intensity of red color and G is that of green color at the same region of interest (ROI) inside the cells. This ratio is used because DOX absorbs green light that ignites its red fluorescence. The R and G values and ratios were measured using ImageJ software.
The red/green (R/G) ratio of the fluorescence inside the cells and R/G ratio of the background fluorescence from the cover slip were measured. […] The cells incubated with either PFCE or PFP droplets have lower fluorescence (R/G ratios of 0.31 and 0.14 for PFCE and PFP respectively) than the cells incubated with DOX in micellar solution (R/G ratio of 0.63). […]

Experiment [2] deals with A2780 ovarian cancer cells. The experiment in a line: Sonication of suspended cells with DOX formulations, confocal imaging. The format is cell-based. Particulars: 3-MHz CW ultrasound, DOX 10 μg/mL. On the procedure:
A2780 cells were lifted off the culture T-flasks with 1× Trypsin (0.25% trypsin, 0.02% EDTA, Sigma Aldrich, St Louis, Mo.). The cells were resuspended in media. This suspension was mixed 2:1 volume ratio with DOX-containing formulations with typical cell concentrations of 5.7×10^6 cells/mL. Two types of DOX solutions in PBS were used: hydrophilic hydrochloride salt DOX-HCl (20 μg/mL) or deprotonated DOX; the concentration in PBS was 20 μg/mL for either molecule. DOX formulations included deprotonated DOX incorporated in 1.4% PEG-PCL micellar solution or DOX incorporated in 1% PFCE or PFP PEG-PCL emulsion; DOX concentration was the same as in PBS solutions (20 μg/mL). […] Pressure was measured using ONDA needle hydrophone (Onda HNR-0500) (calibrated in October, 2009) placed in front of the probe with a distance of 0.5 cm from the probe. […] After ultrasound treatments, a droplet of the cell suspension was placed on a glass slide, and the fluorescence inside the cells was observed and quantified using confocal microscope as described above. […]

Turning to `COc1cccc2c1C(=O)c1c(O)c3c(c(O)c1C2=O)C[C@@](O)(C(=O)CO)C[C@@H]3O[C@H]1C[C@H](N)[C@H](O)[C@H](C)O1.Cl` [hydrophilic DOX, doxorubicin], the “DOX penetration into cell nuclei” value in experiment [1] is on record as “red fluorescence in the nuclei”.

With `COc1cccc2c1C(=O)c1c(O)c3c(c(O)c1C2=O)C[C@@](O)(C(=O)CO)C[C@@H]3O[C@H]1C[C@H](N)[C@H](O)[C@H](C)O1` [deprotonated DOX, doxorubicin], the “effect of ultrasound on DOX penetration into cell nuclei” value in experiment [2] is “marginal”. In experiment [1], the “DOX penetration into cell nuclei” value was “did not get into the nuclei” and the “cellular uptake of DOX” value is recorded as “low cellular uptake”.
